Laboratory results reported in ChEMBL document CHEMBL1139264 (Bioorg Med Chem Lett, 2009).

Key:
[1] = biological target: Estrogen receptor beta (Homo sapiens) (UniProt Q92731); assay: Binding affinity to human ERbeta receptor relative to estrogen
Estrogen receptor = biological target: T1, Estrogen receptor (Homo sapiens, UniProt P03372)
T1 sequence (P03372 whole entry): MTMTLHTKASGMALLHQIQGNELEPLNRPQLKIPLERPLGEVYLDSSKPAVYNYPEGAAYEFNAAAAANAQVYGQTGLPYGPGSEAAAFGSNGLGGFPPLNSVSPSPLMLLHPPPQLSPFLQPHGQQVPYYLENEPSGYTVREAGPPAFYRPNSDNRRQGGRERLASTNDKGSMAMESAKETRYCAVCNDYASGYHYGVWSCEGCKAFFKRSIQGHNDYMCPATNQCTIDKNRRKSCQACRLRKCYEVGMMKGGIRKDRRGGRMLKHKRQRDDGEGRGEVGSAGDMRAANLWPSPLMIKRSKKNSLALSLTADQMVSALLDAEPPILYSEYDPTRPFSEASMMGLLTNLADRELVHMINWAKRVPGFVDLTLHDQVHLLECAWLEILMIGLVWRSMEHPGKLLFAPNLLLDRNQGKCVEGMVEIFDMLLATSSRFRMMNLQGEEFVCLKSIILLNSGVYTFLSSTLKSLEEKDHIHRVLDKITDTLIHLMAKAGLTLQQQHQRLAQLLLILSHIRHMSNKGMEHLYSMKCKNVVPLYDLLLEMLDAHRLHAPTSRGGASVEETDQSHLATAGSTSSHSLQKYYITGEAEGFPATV
Description: Antagonist activity at human ERalpha receptor expressed in HEC1 cells assessed as transcriptional activation after 24 hrs by luciferase reporter gene assay

Estrogen receptor beta (Homo sapiens), sequence (Q92731 whole entry): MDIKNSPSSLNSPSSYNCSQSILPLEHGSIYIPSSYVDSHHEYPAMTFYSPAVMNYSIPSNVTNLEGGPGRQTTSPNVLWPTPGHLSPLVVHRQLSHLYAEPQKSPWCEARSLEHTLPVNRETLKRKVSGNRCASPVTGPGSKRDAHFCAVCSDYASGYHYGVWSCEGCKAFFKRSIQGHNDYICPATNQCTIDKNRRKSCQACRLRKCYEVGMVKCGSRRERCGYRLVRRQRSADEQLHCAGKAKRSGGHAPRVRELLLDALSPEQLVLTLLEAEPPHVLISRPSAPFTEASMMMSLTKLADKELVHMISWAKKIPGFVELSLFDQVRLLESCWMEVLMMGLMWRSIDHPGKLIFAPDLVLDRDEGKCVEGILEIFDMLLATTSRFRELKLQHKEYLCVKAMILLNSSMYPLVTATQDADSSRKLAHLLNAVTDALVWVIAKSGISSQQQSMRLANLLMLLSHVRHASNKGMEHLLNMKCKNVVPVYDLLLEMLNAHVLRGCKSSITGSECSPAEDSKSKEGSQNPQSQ

With `Cc1c(-c2ccc(O)cc2)nn(-c2ccc(O)cc2)c1-c1ccc(OCCN2CCCCC2)cc1` the Activity [1] was 0.05%.

`Cc1c(-c2ccc(O)cc2)nn(-c2ccc(O)cc2)c1-c1ccc(/C=C/C(=O)N2CCCCC2)cc1` was tested, and the Activity [1] was 0.015% and the IC50 (Estrogen receptor) was 1000 nM.

With `Cc1c(-c2ccc(O)cc2)nn(-c2ccc(O)cc2)c1-c1ccc(CCCN2CCCCC2)cc1` the Activity [1] was 0.016% and the IC50 (Estrogen receptor) was 20 nM.

Compound `Cc1c(-c2ccc(O)cc2)nn(-c2ccc(O)cc2)c1-c1ccc(O)cc1` has an Activity [1] of 0.039%.
